Read-outs that look alike come from different tables or passages of the source.
Key:
[1] = system: P. falciparum (3D7 strain); assay: In vitro antiplasmodial activity, P. falciparum blood-stage parasites, SYBR Green I; assay type: cell-based, Plasmodium falciparum; conditions: 3D7 strain, 72 h, SYBR Green I, read-out: IC50^Pf
Method: The P. falciparum strains were cultivated in human blood cells (hRBC) O^+, while P. knowlesi was cultivated in rhesus red blood cells (rRBC) as described. P. falciparum complete RPMI (consisting of RPMI-1640, supplemented with 0.2% NaHCO3, 25 mM HEPES (pH 7.4), 11 mM D-glucose, 10 mg/L hypoxanthine, 25 mg/L gentamicin, and 0.5% (m/v) AlbuMAX II). The parasitemias of these cultures were maintained below 10% with 2.5% hematocrit. P. knowlesi complete RPMI (consisting of RPMI-1640 supplemented with 25 mM HEPES, […] hypoxanthine, 0.26% NaHCO3, 10 mg/L gentamicin, and 1% Albumax II). This culture was maintained with RBCs up to 5% hematocrit. The culture medium was changed daily, and all cultures were maintained under a 90% N2/5% CO2/5% O2 gas mixture at 37 °C. All compounds were purchased from Sigma-Aldrich (Cotia, Brazil).
The antiplasmodial activity of brussonol and derivatives was evaluated against P. falciparum blood parasites 3D7(chloroquine-sensitive). The parasites were synchronized through sterile 5% (m/v) D-sorbitol treatment over 10 min at 37 °C for the enrichment of ring stages. Centrifugation 600× g over 5 min was used to pellet the cultures. The parasitemia was determined by microscope analysis of thin blood smears stained with Giemsa 10% (v/v) after fixation with methanol. The initial parasitemia was calculated for 1000 red blood cells (RBCs), and cultures were diluted to 0.5% parasitemia and 2% hematocrit by the addition of the appropriate volumes of blood and medium. A total of 180 µL aliquots of parasites were distributed into 96-well plates followed by the addition of 20 µL of previously prepared aliquots of ten-fold concentrated compounds, the range of concentrations tested was 10–1.53 µM. Negative and positive control wells, which correspond to non-parasitized erythrocytes and parasite cultures in the absence of compounds, were set in parallel. The DMSO concentration was maintained below 0.05% (v/v) for all compounds except for brussonol, which was 0.5%. The plates were incubated for 72 h at 37 °C in a humidified incubator with a gas mixture of 90% N2, 5% O2, and 5% CO2. Each test was performed in duplicates, and the results were compared with the control cultures. Once completed incubation, the culture medium was removed, and the cells were resuspended in 100 µL PBS (116 mM NaCl, 10 mM NaH2PO4, 3 mM KH2PO4) and lysed with 100 µL lysis buffer (20 mM Tris base, 5 mM EDTA, 0.0008% (v/v) Triton X-100, 0.008% (m/v) saponin, pH 8.0) containing 0.002% (v/v) SYBR Green I. Plates were incubated for 30 min at room temperature, and a SpectraMAX Gemini EM plate reader (Molecular Devices Corp., Sunnyvale, CA) was used to determine the fluorescence corresponding to parasitic density (excitation at 485 nm, emission at 535 nm). The half-maximal inhibitory concentration (IC50^Pf) was determined by non-linear regression analysis of the resulting concentration–response curve using the software GraphPad Prism version 8.0.1 for Windows, GraphPad Software, San Diego, California USA, www.graphpad.com, accessed on 3 March 2022”.

[2] = system: cytosolic Ca^2+ in P. falciparum; assay: [Ca2+]cyt measurements in isolated parasites loaded with Fluo-4AM; assay type: cell-based, Plasmodium falciparum
Method: One of the compounds identified in the structural similarity search was the cyclopiazonic acid (CPA) (Figure 8a). […] Because of that, brussonol activity on the modulation of the SERCA pump was investigated. To assess the effect of brussonol on calcium mobilization in P. falciparum intraerythrocytic stages, isolated parasites loaded with Fluo-4-AM were exposed to 10 μM brussonol in MOPS Ca^2+ buffer. […] To verify if the brussonol-elicited [Ca^2+]cyt increment originated from the endoplasmic reticulum (ER), targeting the PfSERCA pump, CPA was added before the addition of brussonol. […] In the brussonol-pretreated parasites, the addition of CPA still increased the cytosolic Ca^2 + level (30 ± 5 nM) (Figure 8d).
Isolated parasites were incubated for 1 h at 37 °C with 5 μM of Fluo-4AM in 1 mL MOPS buffer (116 mM NaCl, 5.4 mM KCl, 0.8 mM MgSO4, 5.5 mM D-glucose, 50 mM MOPS, and 2 mM CaCl2, pH 7.2), with 1 mM probenecid to minimize compartmentalization and extrusion of probe. The parasites were washed three times with the same buffer and transferred to a quartz cuvette. Intracellular calcium was measured continuously using a Hitachi F-7000 spectrofluorimeter (Tokyo, Japan) by measurement of the fluorescence (λex = 488 nm and λem = 530 nm) at 37 °C, under agitation. When indicated, 10 µM of cyclopiazonic acid (CPA) or 10 µM of brussonol were added to the cuvette. Maximal fluorescence (Fmax) was determined after the lysis of with digitonin 0.15% (m/v), and minimal fluorescence (Fmin) was determined by adding 25 mM EGTA in 3 M Tris, pH 8.8, until no further decrease in fluorescence was observed. The cytosolic calcium concentration ([Ca^2+]cyt) was calculated from the fluorescence data (F) using a Kd value of 345 nM using the formula:Ca^2 +cyt = 345 × [(F − Fmin)/(Fmax − F)]
The results (n = 2) were analyzed through One-Way ANOVA with Tukey post-test. All compounds described here were purchased from Sigma-Aldrich (verificar local).

HepG2 cells = assay: Cytotoxic test on immortalized cells, MTT; assay type: cell-based, human; conditions: HepG2, 72 h
Method: The cytotoxic effects of brussonol and derivatives were evaluated against the human hepatocellular carcinoma cell line (HepG2). The cells were cultivated in an RPMI medium supplemented with 10% (v/v) fetal bovine serum and 25 µg/mL gentamicin. Conditions for the cultivation of these cells were 37 °C and 5% CO2, and every 2 days the supplemented medium was changed.
For experimental procedures, the cells were trypsinized and transferred to a 96-well plate at 30,000 cells per well (180 µL). The plate was incubated at 37 °C and 5% CO2 to allow cell adhesion. Next, 20 µL of serial dilutions of the compounds tested were added to the plate, with a range of concentrations tested from 400–6.25 µM. Cells without any compounds were used as a positive control for growing and the wells containing only medium were used as negative controls. The plate was incubated for 72 h at 37 °C and 5% CO2. After incubation, a microscope was used to determine the highest compound concentration to be used in the experiments (highest concentration without precipitation). A colorimetric assay was used to evaluate cytotoxicity. This assay is based on the metabolic cell activity in the presence of 3-(4,5-dimethylthiazol-2-yl)-2,5-diphenyltetrazolium bromide (MTT). Shortly after incubation, 20 µL of a solution of MTT at 5 mg/mL (solubilized in phosphate buffer) is added to each well. The plate is incubated for 3 to 4 h at 37 °C to allow MTT cleavage in living cells. Then, the supernatant is removed, and 100 µL of dimethylsulfoxide (DMSO) is added to solubilize the purple formazan crystals. The absorbance, which is proportional to the number of viable cells, was determined using a SpectraMAX Plus 384 plate reader (Molecular Devices Corp., Sunnyvale, CA) (λ = 570 nm). All compounds described here were purchased from Sigma-Aldrich (verificar local).
After the IC50 against the parasite and the human cell line is determined, it is possible to calculate the SI. It is calculated as the formula below:SI = IC50^HepG2/IC50^Pf.
For our reference, compounds with SI values higher than 10 are considered well tolerated by the cellular model used, and they are considered for further evaluation.

P. falciparum 3D7 strain = assay: Chemical rescue assay with isopentenyl pyrophosphate (IPP); assay type: cell-based, Plasmodium falciparum; conditions: Plasmodium falciparum, 3D7 strain, 72 h
Source text: To evaluate whether brussonol interfered with the biosynthesis of […] in malaria parasites, we conducted a chemical rescue assay. The assay identifies compounds that interfere with the metabolism of isoprenoids by “rescuing” their growth inhibition through the supplementation of isopentenyl pyrophosphate (IPP), a key precursor of isoprenoid biosynthesis. […] Thus, the chemical rescue assay compares the IC50 values of the tested compound in the presence and absence of IPP. We used fosmidomycin (FOS) as a positive control for growth inhibition rescuing upon supplementation of IPP (Figure 7b). In this assay, compounds that interfere in the metabolism of isoprenoids show a significant increment in the IC50 value in the presence of IPP (Figure 7b).
The chemical rescue assay was carried out as described by Yeh and DeRisi (2011). This assay consists in verifying the IC50 value of the tested compounds with and without the isopentenyl pyrophosphate (IPP), purchased from Isoprenoids, LC (Florida, USA). Briefly, 3D7 strain ring stages were cultured in 96-well plates, with 0.5% parasitemia and 2% hematocrit. Non-parasitized erythrocytes and parasitized erythrocytes without drugs were used as growth controls, and fosmidomycin (FOS) was used as a positive control for chemical rescue. Serial dilutions of brussonol and FOS were prepared in duplicates. In the same 96-well plate, brussonol and FOS had their antiplasmodial activity evaluated with and without supplementation of 200 µM IPP. Plates were incubated for 72 h and analyzed by the SYBR Green I assay.

hemozoin formation = assay: Hemozoin formation inhibition assay; assay type: biochemical; conditions: hemin 25 µM, pH 4.8, 4 h, one experiment in triplicate
Method: 2. Hemozoin Formation Inhibition Assay
The hemozoin formation inhibition assay was performed as described previously.12 Briefly, serial 1:3 dilutions, in a 96‐well plate, wit h brussonol were made in a final volume of 20 μL in a concentration 10 times higher than the final concentration of the assay. Secondly, 90 μ L of freshly prepared hemin (at a final concentration of 25 μM) solution in 1M NaOAc/HOAc buffer pH 4.8 were added followed by addition of 90 μ L of 5.4 mg/L Tween 20 solution freshly prepared. The plates were let to stand for 4 hours at 37 °C followed by resuspension with multichannel pippete and read at 415 and 630 nm using a SpectraMAX Plus 384 plate reader (Molecular Devices Corp., Sunnyvale, CA).
Due to the absence of enough compound, this experiment wa s performed only once, but with internal triplicate. Chloroquine (CQ) and pyrimethamine (PYR) were used as positive and negative control of inhibition, respectively.
Inhibition (%) = 100 – 100 x [(Aco ntro l – Asample) / (Acontrol - Amin)] Acontrol is the difference of the absorbance at 415 and 630 nm of the negative control (Hemin +, Tween 20 ‐, Compound ‐); Amin is the difference of the absorbance at 415 and 630 nm of the positive control (Hemin +, Tween 20 +, Compound ‐ ); Asample is the difference of the absorbance at 415 and 630 nm of the sample. The hemozoin formation inhibition assay was performed to evaluate if brussonol act inhibiting hemozoin formation in P. falciparum. CQ, which is a well‐known inhibitor of hemozoin […]
Figure S1. Hemozoin formation inhibition assay. Different concentrations of CQ (black triangles), PYR (red squares) and brussonol (blue circles) were incubated with heme in triplicates. Th e absorbance was recorded at 415/630 nm to determine the hemozoin formation inhibition. […]

[3] = Plasmodium falciparum, 3D7, 72 h

Row | Compound | IC50 [1, 3] [µM] | further results
1 | Oc1ccc(O)c2c1C[C@@]13CCCC[C@@H]1C[C@@H]2O3 (racemic) [Compound 5] | > 10 | 
2 | cyclopiazonic acid [reference compound] |  | [Ca^2+]cyt rise in brussonol-pretreated parasites ([2]; 10 µM CPA added after 10 µM brussonol): 30 ± 5 nM; [Ca^2+]cyt rise ([2]; 10 µM compound alone, MOPS Ca^2+ buffer, relative to basal level): 23 ± 2 nM
3 | COc1ccc2c(c1OC)C[C@@]13CCCC(C)(C)[C@@H]1C[C@@H]2O3 (racemic) [Compound 9] | > 10 | 
4 | COc1ccc2c(c1OC)CC13CCCCC1CC2O3 (stereo not drawn) [Compound 2] | > 10 | 
5 | COc1c2c(c(Br)c(C(C)C)c1OC)C1CC3CCCCC3(C2)O1 (stereo not drawn) [Compound 14] | 5.65 ± 0.05 | IC50 (HepG2 cells; Homo sapiens): > 25 µM
6 | O=C1C=CC(=O)C2=C1CC13CCCCC1CC2O3 (stereo not drawn) [Compound 6] | > 10 | 
7 | COc1c2c(c(OC)c(C(C)C)c1OC)[C@@H]1C[C@H]3C(C)(C)CCC[C@@]3(C2)O1 (racemic) [Compound 8] | ~5 | IC50 (HepG2 cells): 170 ± 38 µM; IC50 (HepG2 cells; Homo sapiens): > 170 µM
8 | Oc1ccc2c(c1O)CC13CCCCC1CC2O3 (stereo not drawn) [Compound 4] | > 10 | 
9 | COc1ccc(OC)c2c1CC13CCCCC1CC2O3 (stereo not drawn) [Compound 3] | > 10 | 
10 | COc1c2c(c(-c3ccccc3)c(C(C)C)c1OC)[C@@H]1C[C@H]3C(C)(C)CCC[C@@]3(C2)O1 (racemic) [Compound 11] | 5.8 ± 0.2 | IC50 (HepG2 cells; Homo sapiens): > 12 µM
11 | O=CN(O)CCCP(=O)(O)O [fosmidomycin, reference compound] |  | IC50 (P. falciparum 3D7 strain; with 200 µM IPP, read-out: IC50 in the presence of IPP): > 20 µM; IC50 (P. falciparum 3D7 strain; without IPP, read-out: IC50 in the absence of IPP): 1.2 ± 0.2 µM
12 | CCN(CC)CCCC(C)Nc1ccnc2cc(Cl)ccc12 (stereo not drawn) [Chloroquine, reference compound] |  | IC50 (hemozoin formation): 80 µM
13 | COc1c2c(c(-c3ccccc3)c(C(C)C)c1OC)[C@@H]1C[C@H]3CCCC[C@@]3(C2)O1 (racemic) [Compound 15] | 5.89 ± 0.02 | IC50 (HepG2 cells; Homo sapiens): > 50 µM
14 | COc1c(C(C)C)cc2c(c1OC)C[C@@]13CCCC[C@@H]1C[C@@H]2O3 (racemic) [Compound 12] | ~5 | IC50 [1]: 5.6 ± 0.8 µM
15 | COc1c2c(c(Br)c(C(C)C)c1OC)[C@@H]1C[C@H]3C(C)(C)CCC[C@@]3(C2)O1 (racemic) [Compound 10] | ~5 | IC50 [1]: 5.6 ± 0.1 µM
16 | COc1c(C(C)C)cc2c(c1OC)CC13CCCC(C)(C)C1CC2O3 (stereo not drawn) [Compound 7] | 5.2 ± 0.4 | IC50 (HepG2 cells; Homo sapiens): > 192 µM
17 | CC(C)c1cc2c(c(O)c1O)C[C@@]13CCCC[C@@H]1C[C@@H]2O3 (racemic) [Compound 13] | > 10 | 

Source: PMC9321043, “Synthesis, Structure–Activity Relationships, and Parasitological Profiling of Brussonol Derivatives as New Plasmodium falciparum Inhibitors” (Pharmaceuticals, 2022)
